Measured values as given in article PMC7765409 (International Journal of Molecular Sciences, 2020).

How the values were obtained:
C/EBPα mRNA expression = experiment: RT-qPCR gene expression in TG/FA-treated hiPSC-Hep; format: cell-based, human; settings: 24 h pre-treatment then TG/FA 18 h
Experimental: (§1) To explore the signaling partners triggered or altered by the drugs, we performed gene expression RT-qPCR. The hiPSC-Hep were pre-treated in a 24-well plate with the three compounds shown in Figure 7 for 24 h followed by TG/FA challenge for an additional 18 h and RNA from each treatment well was isolated. The pre-treatment paradigm was chosen to stay consistent with how the original HTS was performed. We analyzed several target gene expression levels in the C/EBP-EP300 pathway including CDK2, CDK4, C/EBPα and C/EBPβ, EP300, and diacylglycerol acyltransferase 2 (DGAT2).
(§2) RNA was isolated from hiPSC-derived hepatocytes using the RNeasy kit (Qiagen, Frederick) and subsequently subjected to DNase digestion (Qiagen). Total RNA was quantified using NanoDrop 8000 (Thermo Scientific). The quality of total RNA was assessed by the Agilent Bioanalyzer Nano chip (Agilent Technologies) and RNA integrity number (RIN) ranged from 9.7 to 10. Reverse transcription was performed using the high capacity cDNA reverse transcription kit (Applied Biosystems, Foster City, CA, USA) according to the manufacturer’s recommendation and the complementary DNA (cDNA) obtained used for real-time quantitative PCR. The reaction mixture (10 μL), containing 1 μL of cDNA template, 0.5 μL each of primer and probe (20×, Thermo Fisher Scientific) mix for the gene of interest plus the reference gene and TaqMan Universal PCR master mix (Applied Biosystems) was added to the opaque white 384-well plates and amplified as follows: after 2 min of initial incubation at 50 °C and 10 min of initial denaturation at 95 °C, 45 cycles at 95 °C for 15 s, 60 °C for 1 min for annealing and 1 sec at 72 °C for final extension were performed. Assays were designed to have primers/probes to span exon–exon junctions (Table S1). Direct detection of PCR products was monitored by measuring the fluorescence produced by the result of TaqMan probe hydrolysis after every cycle. All experiments were carried out in triplicate in a LightCycler 480 thermocycler (Roche Diagnostic). Relative gene expression from qPCR data between groups of samples were assessed using a ∆∆Cq method. To adjust for variations in the cDNA synthesis each gene was normalized to that of hypoxanthine phosphoribosyl transferase 1 (HPRT1] or GAPDH mRNA.

CDK2 gene expression = experiment: RT-qPCR gene expression in TG/FA-treated hiPSC-Hep; format: cell-based, human; settings: 24 h pre-treatment then TG/FA 18 h; relative to TG/FA
Experimental: as §1, §2

CDK4 gene expression = experiment: RT-qPCR gene expression in TG/FA-treated hiPSC-Hep; format: cell-based, human; settings: 24 h pre-treatment then TG/FA 18 h, relative to TG/FA
Experimental: as §1, §2

EP300 gene expression = experiment: RT-qPCR gene expression in TG/FA-treated hiPSC-Hep; format: cell-based, human; settings: 24 h pre-treatment then TG/FA 18 h; relative to TG/FA
Experimental: as §1, §2

CDK5 = test system: CDK5; parameters: method as in AstraZeneca data repository; settings: median log of IC50/EC50/Ki/Kd annotations, highest value; ref AstraZeneca data repository; cited from earlier work
CDK6 = test system: CDK6; parameters: method as in AstraZeneca data repository; settings: median log of IC50/EC50/Ki/Kd annotations, highest value; ref AstraZeneca data repository; cited from earlier work
CDK7 = test system: CDK7; parameters: method as in AstraZeneca data repository; settings: median log of IC50/EC50/Ki/Kd annotations, highest value; ref AstraZeneca data repository; cited from earlier work
CDK9 = test system: CDK9; parameters: method as in AstraZeneca data repository; settings: median log of IC50/EC50/Ki/Kd annotations, highest value; ref AstraZeneca data repository; cited from earlier work
CDK12 = test system: CDK12; parameters: method as in AstraZeneca data repository; settings: median log of IC50/EC50/Ki/Kd annotations, highest value; ref AstraZeneca data repository; cited from earlier work
CDK14 = test system: CDK14; parameters: method as in AstraZeneca data repository; settings: median log of IC50/EC50/Ki/Kd annotations, highest value; ref AstraZeneca data repository; cited from earlier work
CDK16 = test system: CDK16; parameters: method as in AstraZeneca data repository; settings: median log of IC50/EC50/Ki/Kd annotations, highest value; ref AstraZeneca data repository; cited from earlier work
CDK5R1 = test system: CDK5R1; parameters: method as in AstraZeneca data repository; settings: median log of IC50/EC50/Ki/Kd annotations, highest value; ref AstraZeneca data repository; cited from earlier work
C/EBPβ gene expression = experiment: RT-qPCR gene expression in TG/FA-treated hiPSC-Hep; format: cell-based, human; settings: 24 h pre-treatment then TG/FA 18 h; relative to TG/FA
Experimental: as §1, §2

DGAT2 mRNA = experiment: RT-qPCR gene expression in TG/FA-treated hiPSC-Hep; format: cell-based, human; settings: dose-dependent, under condition of hepatic steatosis (TG/FA)
Experimental: as §1, §2

CDK8 = test system: CDK8; parameters: method as in AstraZeneca data repository; settings: median log of IC50/EC50/Ki/Kd annotations, highest value; ref AstraZeneca data repository; cited from earlier work

| Compound | C/EBPα mRNA expression suppressed by (C/EBPα mRNA expression; 5 µM) | effect on CDK2 gene expression (CDK2 gene expression) | CDK4 gene expression suppressed to (CDK4 gene expression; 5 µM) | effect on EP300 gene expression (EP300 gene expression) | pXC50 CDK5 (CDK5) | pXC50 CDK6 (CDK6) | pXC50 CDK7 (CDK7) | pXC50 CDK9 (CDK9) | pXC50 CDK12 (CDK12) | pXC50 CDK14 (CDK14) | pXC50 CDK16 (CDK16) | pXC50 CDK5R1 (CDK5R1) | effect on C/EBPα mRNA level (C/EBPα mRNA expression; relative to TG/FA) | effect on C/EBPβ gene expression (C/EBPβ gene expression) | effect on CDK4 mRNA level (CDK4 gene expression) | DGAT2 mRNA level decreased by (DGAT2 mRNA) | pXC50 CDK8 (CDK8) |
| --- | --- | --- | --- | --- | --- | --- | --- | --- | --- | --- | --- | --- | --- | --- | --- | --- | --- |
| CNC(=O)c1nn(C)c2c1C(C)(C)Cc1cnc(Nc3ccc(N4CCN(C)CC4)cc3)nc1-2 [C16, Milciclib] | 47% | overall increase | ~34% | not significantly affected | 6.58 | 7.61 | 7.51 | 5.60 | 5.34 | 6.13 | 7.10 | 6.58 | – | – | – | – | – |
| Cc1ncc(-c2nc(Nc3ccc(N4CCN(C(=O)CO)CC4)cc3)ncc2F)n1C(C)C [C3] | – | no effect | – | no effect | – | – | – | – | – | – | – | – | no effect | no effect | no effect | 46% | 5.60 |
